According to US12338220B2, “Antiviral pyrazolopiridinone compounds” (Novartis AG, priority 2019, dated 2025):
Where two headings read alike, the source gives them in different places.

Experiments:
CMV-polymerase = CMV-polymerase (Human cytomegalovirus (strain AD169) (HHV-5) (Human herpesvirus 5), UniProt P08546); experiment: biochemical; conditions: read-out: CMV-polymerase Biochemical IC50
CMV = experiment: microbe, parasite or virus in culture; assay type: cell-based
[1] = Human betaherpesvirus 5, 72 h, read-out: CMV-Luc Cellular EC50, NN-NHDF cells, MOI 1, 72 hrs
[2] = NN-NHDF cells, MOI 1, 72 hrs, read-out: CMV-Luc Cellular EC50

Row | Structure (SMILES) | IC50 (CMV-polymerase) [nM] | EC50 (CMV; [1]) [nM] | other results
1 | CC1Cc2c(C(=O)NCc3ccc(C#N)cc3)nn(C)c2C(=O)N1CC1(S(C)(=O)=O)CC1 (single isomer, unassigned) [Example 41, (R)- or (S)-N-(4-cyanobenzyl)-1,5-dimethyl-6-((1-(methylsulfonyl)cyclopropyl)methyl)-7-oxo-4,5,6,7-tetrahydro-1H-pyrazolo[3,4-c]pyridine-3-carboxamide] | 9770 | – | –
2 | CC(N)COCC(C)(C)S(=O)(=O)C1(CN2CCc3c(C(=O)NCc4ccc(Cl)cc4)nn(C)c3C2=O)CC1 (single isomer, unassigned) [Example 97, (R)- or (S)-6-((1-((1-(2-Aminopropoxy)-2-methylpropan-2-yl)sulfonyl)cyclopropyl)methyl)-N-(4-chlorobenzyl)-1-methyl-7-oxo-4,5,6,7-tetrahydro-1H-pyrazolo[3,4-c]pyridine-3-carboxamide] | – | 8 | –
3 | CC(N)COCC(C)(C)S(=O)(=O)C1(CN2CCc3c(C(=O)NCc4ccc(Cl)cc4)nn(C)c3C2=O)CC1 (single isomer, unassigned) [Example 98, (R)- or (S)-6-((1-((1-(2-Aminopropoxy)-2-methylpropan-2-yl)sulfonyl)cyclopropyl)methyl)-N-(4-chlorobenzyl)-1-methyl-7-oxo-4,5,6,7-tetrahydro-1H-pyrazolo[3,4-c]pyridine-3-carboxamide] | – | – | EC50 (CMV; read-out: CMV-Luc Cellular EC50, NN-NHDF cells, MOI 1, 72 hrs): 8 nM
4 | CC(N)COCC(C)(C)S(=O)(=O)C1(CN2CCc3c(C(=O)NCc4ccc(C#N)cc4)nn(C)c3C2=O)CC1 (single isomer, unassigned) [Example 99, (R)- or (S)-6-((1-((1-(2-Aminopropoxy)-2-methylpropan-2-yl)sulfonyl)cyclopropyl)methyl)-N-(4-cyanobenzyl)-1-methyl-7-oxo-4,5,6,7-tetrahydro-1H-pyrazolo[3,4-c]pyridine-3-carboxamide] | – | 14 | –
5 | Cn1nc(C(=O)NCc2ccc(C#N)cc2)c2c1C(=O)N(CC1(S(=O)(=O)N3CCC(C)(O)C3)CC1)CC2 (single isomer, unassigned) [Example 130, (R)- or (S)-N-(4-Cyanobenzyl)-6-((1-((3-hydroxy-3-methylpyrrolidin-1-yl)sulfonyl)cyclopropyl)methyl)-1-methyl-7-oxo-4,5,6,7-tetrahydro-1H-pyrazolo[3,4-c]pyridine-3-carboxamide] | 7 | 163 | –
6 | Cn1nc(C(=O)NCc2ccc(C#N)cc2)c2c1C(=O)N(CC1(S(=O)(=O)N3CCC(C)(O)C3)CC1)CC2 (single isomer, unassigned) [Example 131, (R)- or (S)-N-(4-Cyanobenzyl)-6-((1-((3-hydroxy-3-methylpyrrolidin-1-yl)sulfonyl)cyclopropyl)methyl)-1-methyl-7-oxo-4,5,6,7-tetrahydro-1H-pyrazolo[3,4-c]pyridine-3-carboxamide] | 16 | – | –
7 | Cn1nc(C(=O)NCc2ccc(C#N)cc2)c2c1C(=O)N(CC1(S(=O)(=O)C3CCOC3)CC1)CC2 (single isomer, unassigned) [Example 170, (R)- or (S)-N-(4-Cyanobenzyl)-1-methyl-7-oxo-6-((1-((tetrahydrofuran-3-yl)sulfonyl)cyclopropyl)methyl)-4,5,6,7-tetrahydro-1H-pyrazolo[3,4-c]pyridine-3-carboxamide] | – | 124 | –
8 | Cn1nc(C(=O)NCc2ccc(C#N)cc2)c2c1C(=O)N(CC1(S(=O)(=O)C(C)(CN)CO)CC1)CC2 (single isomer, unassigned) [Example 184, (R)- or (S)-6-((1-((1-Amino-3-hydroxy-2-methylpropan-2-yl)sulfonyl)cyclopropyl)methyl)-N-(4-cyanobenzyl)-1-methyl-7-oxo-4,5,6,7-tetrahydro-1H-pyrazolo[3,4-c]pyridine-3-carboxamide] | – | 165 | –
9 | Cn1nc(C(=O)NCc2ccc(C#N)cc2)c2c1C(=O)N(CC1(S(=O)(=O)C(C)(C)C(O)CN)CC1)CC2 (single isomer, unassigned) [Example 199, (R)- or (S)-6-((1-((4-Amino-3-hydroxy-2-methylbutan-2-yl)sulfonyl)cyclopropyl)methyl)-N-(4-cyanobenzyl)-1-methyl-7-oxo-4,5,6,7-tetrahydro-1H-pyrazolo[3,4-c]pyridine-3-carboxamide] | – | 19 | EC50 (CMV; Human betaherpesvirus 5, read-out: Cellular activity against CMV (EC50), Table 18): 18 nM
10 | CNCC(O)C(C)(C)S(=O)(=O)C1(CN2CCc3c(C(=O)NCc4ccc(C#N)cc4)nn(C)c3C2=O)CC1 (single isomer, unassigned) [Example 202, (R)- or (S)-N-(4-Cyanobenzyl)-6-((1-((3-hydroxy-2-methyl-4-(methylamino)butan-2-yl)sulfonyl)cyclopropyl)methyl)-1-methyl-7-oxo-4,5,6,7-tetrahydro-1 H-pyrazolo[3,4-c]pyridine-3-carboxamide] | – | 30 | –
11 | CNCC(O)C(C)(C)S(=O)(=O)C1(CN2CCc3c(C(=O)NCc4ccc(Cl)cc4)nn(C)c3C2=O)CC1 (single isomer, unassigned) [Example 204, (R)- or (S)-N-(4-Chlorobenzyl)-6-((1-((3-hydroxy-2-methyl-4-(methylamino)butan-2-yl)sulfonyl)cyclopropyl)methyl)-1-methyl-7-oxo-4,5,6,7-tetrahydro-1 H-pyrazolo[3,4-c]pyridine-3-carboxamide] | – | 11 | –
12 | CN(C)CC(O)C(C)(C)S(=O)(=O)C1(CN2CCc3c(C(=O)NCc4ccc(Cl)cc4)nn(C)c3C2=O)CC1 (single isomer, unassigned) [Example 206, (R)- or (S)-N-(4-Chlorobenzyl)-6-((1-((4-(dimethylamino)-3-hydroxy-2-methylbutan-2-yl)sulfonyl)cyclopropyl)methyl)-1-methyl-7-oxo-4,5,6,7-tetrahydro-1H-pyrazolo[3,4-c]pyridine-3-carboxamide] | – | 71 | –
13 | Cn1nc(C(=O)NCc2ccc(F)cc2)c2c1C(=O)N(CC1(S(=O)(=O)C3CC3)CC1)CC2 [Example 5, 6-((1-(Cyclopropylsulfonyl)cyclopropyl)methyl)-N-(4-fluorobenzyl)-1-methyl-7-oxo-4,5,6,7-tetrahydro-1H-pyrazolo[3,4-c]pyridine-3-carboxamide] | 30 | 284 | –
14 | CN(Cc1ccc(C#N)cc1)C(=O)c1nn(C)c2c1CCN(CC1(S(=O)(=O)C3CC3)CC1)C2=O [Example 6, N-(4-Cyanobenzyl)-6-((1-(cyclopropylsulfonyl)cyclopropyl)methyl)-N,1-dimethyl-7-oxo-4,5,6,7-tetrahydro-1H-pyrazolo[3,4-c]pyridine-3-carboxamide] | 30 | 770 | –
15 | Cc1ccc(CNC(=O)c2nn(C)c3c2CCN(CC2(S(=O)(=O)C4CC4)CC2)C3=O)cc1 [Example 8, 6-((1-(Cyclopropylsulfonyl)cyclopropyl)methyl)-1-methyl-N-(4-methylbenzyl)-7-oxo-4,5,6,7-tetrahydro-1H-pyrazolo[3,4-c]pyridine-3-carboxamide] | 35 | 339 | –
16 | Cn1nc(C(=O)NCc2ccc(C#N)c(F)c2)c2c1C(=O)N(CC1(S(=O)(=O)C3CC3)CC1)CC2 [Example 9, N-(4-Cyano-3-fluorobenzyl)-6-((1-(cyclopropylsulfonyl)cyclopropyl)methyl)-1-methyl-7-oxo-4,5,6,7-tetrahydro-1H-pyrazolo[3,4-c]pyridine-3-carboxamide] | 1 | 31 | –
17 | Cn1nc(C(=O)NCc2ccc(Cl)s2)c2c1C(=O)N(CC1(S(=O)(=O)C3CC3)CC1)CC2 [Example 10, N-((5-Chlorothiophen-2-yl)methyl)-6-((1-(cyclopropylsulfonyl)cyclopropyl)methyl)-1-methyl-7-oxo-4,5,6,7-tetrahydro-1H-pyrazolo[3,4-c]pyridine-3-carboxamide] | 26 | 259 | –
18 | Cc1cc(CNC(=O)c2nn(C)c3c2CCN(CC2(S(=O)(=O)C4CC4)CC2)C3=O)ccc1C#N [Example 11, N-(4-Cyano-3-methylbenzyl)-6-((1-(cyclopropylsulfonyl)cyclopropyl)methyl)-1-methyl-7-oxo-4,5,6,7-tetrahydro-1H-pyrazolo[3,4-c]pyridine-3-carboxamide] | 17 | 214 | –
19 | Cn1nc(C(=O)OCc2ccc(C#N)cc2)c2c1C(=O)N(CC1(S(=O)(=O)C3CC3)CC1)CC2 [Example 24, 4-cyanobenzyl 6-((1-(cyclopropylsulfonyl)cyclopropyl)methyl)-1-methyl-7-oxo-4,5,6,7-tetrahydro-1H-pyrazolo[3,4-c]pyridine-3-carboxylate] | – | 197 | –
20 | N#Cc1ccc(CNC(=O)c2n[nH]c3c2CCN(CC2(S(=O)(=O)C4CC4)CC2)C3=O)cc1 [Example 45, N-(4-Cyanobenzyl)-6-((1-(cyclopropylsulfonyl)cyclopropyl)methyl)-7-oxo-4,5,6,7-tetrahydro-1H-pyrazolo[3,4-c]pyridine-3-carboxamide] | – | – | EC50 (CMV; [2]): 146 nM
21 | Cn1nc(C(=O)NCc2ccc(C#N)cc2)c2c1C(=O)N(CC1(S(=O)(=O)C(C)(C)COCCO)CC1)CC2 [Example 87, N-(4-Cyanobenzyl)-6-((1-((1-(2-hydroxyethoxy)-2-methylpropan-2-yl)sulfonyl)cyclopropyl)methyl)-1-methyl-7-oxo-4,5,6,7-tetrahydro-1H-pyrazolo[3,4-c]pyridine-3-carboxamide] | – | – | EC50 (CMV; [2]): 44 nM
22 | CN(C(C)(CO)CO)S(=O)(=O)C1(CN2CCc3c(C(=O)NCc4ccc(Cl)cc4)nn(C)c3C2=O)CC1 [Example 154, N-(4-chlorobenzyl)-6-((1-(N-(1,3-dihydroxy-2-methylpropan-2-yl)-N-methylsulfamoyl)cyclopropyl)methyl)-1-methyl-7-oxo-4,5,6,7-tetrahydro-1H-pyrazolo[3,4-c]pyridine-3-carboxamide] | – | 83 | –
23 | Cn1nc(C(=O)NCc2ccc(Cl)cc2)c2c1C(=O)N(CC1(S(=O)(=O)C(C)(CN)CO)CC1)CC2 (stereo not shown) [Example 186, 6-((1-((1-Amino-3-hydroxy-2-methylpropan-2-yl)sulfonyl)cyclopropyl)methyl)-N-(4-chlorobenzyl)-1-methyl-7-oxo-4,5,6,7-tetrahydro-1H-pyrazolo[3,4-c]pyridine-3-carboxamide] | – | – | EC50 (CMV; Human betaherpesvirus 5, 72 h, NN-NHDF cells, MOI 1, 72 hrs, read-out: CMV-Luc Cellular EC50): 90 nM
